This assay concerns the target T1, recombinant sEH (Homo sapiens, UniProt P34913).
T1 construct: made in house; host or cells: Sf9 insect cells
T1 sequence (P34913 1-555): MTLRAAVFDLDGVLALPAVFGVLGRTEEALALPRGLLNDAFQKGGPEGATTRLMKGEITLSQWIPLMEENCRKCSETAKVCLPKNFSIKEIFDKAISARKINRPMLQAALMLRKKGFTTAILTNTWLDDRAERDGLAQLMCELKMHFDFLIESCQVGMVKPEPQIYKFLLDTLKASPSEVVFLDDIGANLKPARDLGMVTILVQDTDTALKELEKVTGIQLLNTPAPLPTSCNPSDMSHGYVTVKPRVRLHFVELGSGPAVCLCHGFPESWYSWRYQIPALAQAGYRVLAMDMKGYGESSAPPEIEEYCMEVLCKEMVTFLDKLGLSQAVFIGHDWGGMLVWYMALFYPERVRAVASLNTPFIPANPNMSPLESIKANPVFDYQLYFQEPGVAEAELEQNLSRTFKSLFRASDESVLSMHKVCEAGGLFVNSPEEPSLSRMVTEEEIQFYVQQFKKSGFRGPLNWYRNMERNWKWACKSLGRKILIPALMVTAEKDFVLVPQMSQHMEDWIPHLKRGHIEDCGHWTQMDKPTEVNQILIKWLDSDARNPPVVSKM
Nature of the assay: biochemical screening assay for inhibition of soluble epoxide hydrolase (fluorometric, Phome substrate). A digest of the protocol:
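Human sEH from Sf9 cells (2 nM final) was pre-incubated 15 min at 30 °C with compound (0.0001–10 μM), then reacted 60 min at 30 °C with 5 μM Phome in 25 mM Hepes/0.01% albumin. Fluorescence of released 6-methoxy-2-naphthaldehyde was read before substrate and at end; IC50 from % inhibition.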

As for `O=C(NCCc1ccccc1)N[C@H]1CO[C@@H]2[C@@H](CCc3ccccc3)CO[C@@H]21` [Example 371, 1-Phenethyl-3-((3S,3aR,6S,6aR)-6-phenethyl-hexahydro-furo[3,2-b]furan-3-yl)-urea], the IC50 stood at 24 nM. Next, `O=C(Nc1ccc(OC(F)(F)F)cc1)N[C@H]1CO[C@@H]2[C@@H](CCc3ccccc3)CO[C@@H]21` [Example 372, 1-((3S,3aR,6S,6aR)-6-Phenethyl-hexahydro-furo[3,2-b]furan-3-yl)-3-(4-trifluoromethoxy-phenyl)-urea]: 11 nM; `O=C(NCCc1ccccc1)N[C@H]1CO[C@@H]2[C@@H](CCc3ccsc3)CO[C@@H]21` [Example 373, 1-Phenethyl-3-[(3S,3aR,6S,6aR)-6-(2-thiophen-3-yl-ethyl)-hexahydro-furo[3,2-b]furan-3-yl]-urea]: 39 nM; `O=C(Nc1ccc(OC(F)(F)F)cc1)N[C@H]1CO[C@@H]2[C@@H](CCc3ccsc3)CO[C@@H]21` [Example 374, 1-[(3S,3aR,6S,6aR)-6-(2-Thiophen-3-yl-ethyl)-hexahydro-furo[3,2-b]furan-3-yl]-3-(4-trifluoromethoxy-phenyl)-urea]: 235 nM. Regarding `O=C(Nc1cccc(C(F)(F)F)c1)N[C@H]1CO[C@@H]2[C@@H](CCc3ccsc3)CO[C@@H]21` [Example 375, 1-[(3S,3aR,6S,6aR)-6-(2-Thiophen-3-yl-ethyl)-hexahydro-furo[3,2-b]furan-3-yl]-3-(3-trifluoromethyl-phenyl)-urea], the IC50 was found to be 17 nM. Take `CCOC(=O)CC[C@H]1CO[C@H]2[C@@H]1OC[C@@H]2NC(=O)NC1CCCCC1` [Example 376, 3-[(3S,3aR,6S,6aR)-6-(3-Cyclohexyl-ureido)-hexahydro-furo[3,2-b]furan-3-yl]-propionic acid ethyl ester]: the IC50 was 26 nM. For `O=C(O)CC[C@H]1CO[C@H]2[C@@H]1OC[C@@H]2NC(=O)NC1CCCCC1` [Example 377, 3-[(3S,3aR,6S,6aR)-6-(3-cyclohexyl-ureido)-hexahydro-furo[3,2-b]furan-3-yl]-propionic acid] the value was 2940 nM; for `N#C[C@H]1CO[C@H]2[C@@H]1OC[C@@H]2NC(=O)Nc1ccc(OC(F)(F)F)cc1` [Example 378, 1-((3S,3aR,6S,6aR)-6-cyano-hexahydro-furo[3,2-b]furan-3-yl)-3-(4-trifluoromethoxy-phenyl)-urea], 24 nM; for `CCCCOc1ccc(NC(=O)NC2COC3C(C#N)COC23)cc1` (stereo not shown) [Example 380], 304 nM. For `Cc1cc(C)cc(NC(=O)NC2COC3C(C#N)COC23)c1` (stereo not shown) [Example 381] the value was 108 nM. Next, `N#CC1COC2C(NC(=O)Nc3ccc(OCc4ccccc4)cc3)COC12` (stereo not shown) [Example 382]: 339 nM; `Cc1cccc(NC(=O)NC2COC3C(C#N)COC23)c1` (stereo not shown) [Example 383]: 694 nM. For the compound `N#CC1COC2C(NC(=O)Nc3ccc(Cl)c(Cl)c3)COC12` (stereo not shown) [Example 384], the IC50 was 61 nM.

The IC50 is the concentration that inhibits the measured activity by half.

Values taken from US9540391B2, “Isomannide derivatives as inhibitors of soluble epoxide hydrolase” (SANOFI, priority 2013, dated 2017).
